The values below come from patent publication US12389911B2, “Benzimidazole compound or salt thereof, agricultural and horticultural insecticidal and acaricidal agent containing said compound, and method for using same” (NIHON NOHYAKU CO., LTD., priority 2019, dated 2025).

The test system of the data set is Two-spotted spider mite (Tetranychus urticae). Briefly: Acaricidal action on two-spotted spider mite (kidney bean leaf disk spray). The data set is classed as in vivo. The following applies: 500 ppm, adult females, 25° C., two days after treatment. On the procedure: Acaricidal Action on Two-Spotted Spider Mite (Tetranychus urticae)
Leaf disk having a diameter of 2 cm was prepared by leaves of kidney bean, and the leaf disk was placed on the wetted filter paper. Adult hens of two-spotted spider mite were inoculated on the wetted filter paper, and then 50 ml of an agrochemical dispersion, prepared by diluting a formulation containing the benzimidazole compound represented by the general formula (1) of the present invention or salt thereof as an active ingredient to adjust each of the concentrations to 500 ppm, was sprayed on turntable uniformly. After the spraying, it was allowed to stand in a thermostatic chamber at 25° C. Two days after the treatment of an agrochemical dispersion, the dead mites were counted, the corrected mortality rate was calculated according to the formula shown below, and the acaricidal efficacy was evaluated according to the criteria of Test Example 2. This test was conducted in duplicate using 10 adult hens of two-spotted spider per plot. Corrected mortality(%)=(Number of dead mites in a non-treatment plot−Number of dead mites in a treatment plot)/(Number of dead mites in a non-treatment plot)×100 [Expression 4]
Regarding `CCCCCc1cn(-c2nc3ccccc3n2S(=O)(=O)CC)cn1` [Compound 1-2], the “acaricidal efficacy (corrected mortality rate), activity level” value (“acaricidal efficacy” below) is reported as “D or higher”.

Consider `CCCCCCCCc1cn(-c2nc3ccccc3n2S(C)(=O)=O)cn1` [Compound 1-3], for which the “acaricidal efficacy” value is reported as “D or higher”.

On to `CCS(=O)(=O)n1c(-n2cnc(C(C)(C)C)c2)nc2ccccc21` [Compound 1-5], for which the “acaricidal efficacy” value is given as “D or higher”.

Regarding `CCS(=O)(=O)n1c(-n2cnc(C#CC3CC3)c2)nc2ccccc21` [Compound 1-7], the “acaricidal efficacy” value is reported as “D or higher”.

For `CCS(=O)(=O)n1c(-n2cnc(CCc3ccc(C(C)(C)C)cc3)c2)nc2ccccc21` [Compound 1-10], the “acaricidal efficacy” value is listed as “D or higher”.

For `CCS(=O)(=O)n1c(-n2cnc(CCc3ccc(Br)cc3)c2)nc2ccccc21` [Compound 1-14], the “acaricidal efficacy” value is listed as “D or higher”.

Regarding `CCS(=O)(=O)n1c(-n2cnc(COc3ccc(C(F)(F)F)cc3)c2)nc2ccccc21` [Compound 1-16], the “acaricidal efficacy” value is “D or higher”.

Turning to `CCS(=O)(=O)n1c(-n2cnc(COc3ccc(OC(F)(F)F)cc3)c2)nc2ccccc21` [Compound 1-17], the “acaricidal efficacy” value is given as “D or higher”.

`CCS(=O)(=O)n1c(-n2cnc(C#Cc3ccccc3)c2)nc2ccccc21` [Compound 1-18]: the “acaricidal efficacy” value is listed as “D or higher”.

For the compound `CCS(=O)(=O)n1c(-n2cnc(I)c2)nc2ccccc21` [Compound 1-20], the “acaricidal efficacy” value is “D or higher”.

With `CCS(=O)(=O)n1c(-n2cnc(C(F)(F)F)c2)nc2ccccc21` [Compound 1-21], the “acaricidal efficacy” value is on record as “D or higher”.

Turning to `CCS(=O)(=O)n1c(-n2cnc(C(F)(F)C(F)(F)C(F)(F)C(F)(F)C(F)(F)C(F)(F)F)c2)nc2ccccc21` [Compound 1-28], the “acaricidal efficacy” value is “D or higher”.

As for `CCS(=O)(=O)n1c(-n2cnc(C#N)c2)nc2ccccc21` [Compound 1-31], the “acaricidal efficacy” value is given as “D or higher”.

Regarding `CCS(=O)(=O)n1c(-n2cnc(C(=O)OC(C)(C)C)c2)nc2ccccc21` [Compound 1-33], the “acaricidal efficacy” value is listed as “D or higher”.

In the case of `CCS(=O)(=O)n1c(-n2cnc(C(=O)OC(C)(C)c3ccccc3)c2)nc2ccccc21` [Compound 1-36], the “acaricidal efficacy” value is reported as “D or higher”.

Turning to `CCCCCCCCc1cnn(-c2nc3ccccc3n2S(=O)(=O)CC)c1` [Compound 2-2], the “acaricidal efficacy” value was “D or higher”.

Regarding `CCS(=O)(=O)n1c(-n2cc(CCc3ccc(C(F)(F)F)cc3)cn2)nc2ccccc21` [Compound 2-4], the “acaricidal efficacy” value is “D or higher”.

For `CCS(=O)(=O)n1c(-n2cc(CCc3ccc(F)cc3)c(C(F)(F)F)n2)nc2ccccc21` [Compound 2-5], the “acaricidal efficacy” value was “D or higher”.

With `CCS(=O)(=O)n1c(-n2cc(CCc3ccc(OC)cc3)c(C(F)(F)F)n2)nc2ccccc21` [Compound 2-6], the “acaricidal efficacy” value is “D or higher”.

Regarding `CCCCCCC#Cc1cnn(-c2nc3ccccc3n2S(=O)(=O)CC)c1` [Compound 2-7], the “acaricidal efficacy” value is “D or higher”.

`CCS(=O)(=O)n1c(-n2cc(C#Cc3ccc(F)cc3)c(C(F)(F)F)n2)nc2ccccc21` [Compound 2-9]: the “acaricidal efficacy” value is listed as “D or higher”.

`CCS(=O)(=O)n1c(-n2cc(Br)c(C(F)(F)F)n2)nc2ccccc21` [Compound 2-14]: the “acaricidal efficacy” value is reported as “D or higher”.

Consider `CCS(=O)(=O)n1c(-n2cc(I)c(C(F)(F)F)n2)nc2ccccc21` [Compound 2-16], for which the “acaricidal efficacy” value is reported as “D or higher”.

Turning to `CCS(=O)(=O)n1c(-n2nc(C(F)(F)F)c(Br)c2C)nc2ccccc21` [Compound 2-18], the “acaricidal efficacy” value is on record as “D or higher”.
